# Columns and labels:
# [1] = target: T1, human ACSS1 protein (Homo sapiens, UniProt Q9NUB1); assay: ACSS1 cell-free activity assay (pyrophosphatase-coupled, Biomol green); type: biochemical; conditions: 5 nM human ACSS1, 30 minutes at room temperature, absorbance at 620 nm
# T1 construct: purchased MyBioSource
# T1 sequence (Q9NUB1 38-689): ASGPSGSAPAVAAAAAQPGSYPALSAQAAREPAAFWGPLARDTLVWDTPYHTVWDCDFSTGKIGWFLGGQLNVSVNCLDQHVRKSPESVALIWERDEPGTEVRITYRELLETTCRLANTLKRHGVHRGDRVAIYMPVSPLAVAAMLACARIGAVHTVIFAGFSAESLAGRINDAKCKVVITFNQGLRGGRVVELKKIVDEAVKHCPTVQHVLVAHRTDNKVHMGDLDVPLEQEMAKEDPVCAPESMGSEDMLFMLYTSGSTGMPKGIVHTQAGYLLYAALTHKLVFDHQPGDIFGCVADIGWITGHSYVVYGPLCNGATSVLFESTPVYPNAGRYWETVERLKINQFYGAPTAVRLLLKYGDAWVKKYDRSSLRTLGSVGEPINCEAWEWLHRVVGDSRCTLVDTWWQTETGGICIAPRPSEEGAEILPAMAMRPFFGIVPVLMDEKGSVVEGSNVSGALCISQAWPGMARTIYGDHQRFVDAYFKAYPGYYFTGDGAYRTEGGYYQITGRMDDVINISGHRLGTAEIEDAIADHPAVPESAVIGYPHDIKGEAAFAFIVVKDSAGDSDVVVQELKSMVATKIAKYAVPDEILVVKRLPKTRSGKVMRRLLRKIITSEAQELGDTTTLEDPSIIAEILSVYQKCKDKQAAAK
# Procedure: ACSS1 Cell-Free Activity Assay (Cell-Free IC50)
# (§1) The assay is based on a coupling reaction with Pyrophosphatase: ACSS1 is converting ATP+CoA+Acetate=>AMP+pyrophosphate+Acetyl-CoA (Ac-CoA). Pyrophosphatase converts pyrophosphate, a product of the ACSS1 reaction, to phosphate which can be detected by measuring the absorbance at 620 nm after incubation with the Biomol green reagent (Enzo life Science, BML-AK111).
# (§2) Cell Free IC50 Determination:
# 5 nM of human ACSS1 protein (MyBioSource) was incubated for 30 minutes at room temperature with various compounds' concentrations in a reaction containing 50 mM Hepes pH 7.5, 10 mM DTT, 90 mM KCl, 0.006% Tween-20, 0.1 mg/ml BSA, 2 mM MgCl2, 15 μM CoA, 5 mM NaAc, 300 μM ATP and 0.5 U/ml Pyrophosphatase (Sigma). At the end of the reaction, Biomol Green was added for 30 minutes at RT and the activity was measured by reading the absorbance at 620 nm. IC50 values were calculated using non-linear regression curve fit with 0% and 100% constrains (CDD Vault, Collaborative Drug Discovery, Inc.).
# [2] = target: T2, human ACSS2 protein (Homo sapiens, UniProt Q9NR19); assay: ACSS2 cell-free activity assay (pyrophosphatase-coupled, Biomol green); conditions: 10 nM human ACSS2, 90 minutes at 37 C, absorbance at 620 nm; read-out: ACSS2 Biochemical IC50
# T2 construct: purchased OriGene Technologies, Inc
# T2 sequence (Q9NR19 whole entry): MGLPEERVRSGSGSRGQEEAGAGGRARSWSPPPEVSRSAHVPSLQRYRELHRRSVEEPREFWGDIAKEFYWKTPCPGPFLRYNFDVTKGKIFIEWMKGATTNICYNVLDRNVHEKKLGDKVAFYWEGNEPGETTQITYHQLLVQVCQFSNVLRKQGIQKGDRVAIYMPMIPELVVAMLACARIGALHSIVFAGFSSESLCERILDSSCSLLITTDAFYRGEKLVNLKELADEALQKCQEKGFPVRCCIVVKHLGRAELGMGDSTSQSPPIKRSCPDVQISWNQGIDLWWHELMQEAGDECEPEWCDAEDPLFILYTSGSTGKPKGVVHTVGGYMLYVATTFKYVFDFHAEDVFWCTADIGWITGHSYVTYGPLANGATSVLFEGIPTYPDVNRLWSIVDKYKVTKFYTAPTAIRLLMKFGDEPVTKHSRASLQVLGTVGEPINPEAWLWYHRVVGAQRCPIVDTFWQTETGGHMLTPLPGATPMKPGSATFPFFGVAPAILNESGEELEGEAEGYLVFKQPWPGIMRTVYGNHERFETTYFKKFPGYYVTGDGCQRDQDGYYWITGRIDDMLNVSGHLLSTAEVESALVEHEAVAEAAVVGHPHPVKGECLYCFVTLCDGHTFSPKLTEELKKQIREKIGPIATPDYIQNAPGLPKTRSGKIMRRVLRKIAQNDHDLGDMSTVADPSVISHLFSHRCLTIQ
# Procedure: ACSS2 Cell-Free Activity Assay (Cell-Free IC50)
# as §1, with “ACSS2” for “ACSS1”
# as §2
# 10 nM of human ACSS2 protein (OriGene Technologies, Inc) was incubated for 90 minutes at 37 C with various compounds' concentrations in a reaction containing 50 mM Hepes pH 7.5, 10 mM DTT, 90 mM KCl, 0.006% Tween-20, 0.1 mg/ml BSA, 2 mM MgCl2, 10 μM CoA, 5 mM NaAc, 300 μM ATP and 0.5 U/ml Pyrophosphatase (Sigma). At the end of the reaction, Biomol Green was added for 30 minutes at RT and the activity was measured by reading the absorbance at 620 nm. IC50 values were calculated using non-linear regression curve fit with 0% and 100% constrains (CDD Vault, Collaborative Drug Discovery, Inc.).
ACSS1 Biochemical IC50 (nM) [1],IC50 [2] [nM],SMILES
Inactive,1 to 30,"CCN(C)C(=O)c1cccc(NC(=O)c2c(C)[nH]c(-c3ccc(OC)c(-c4c(C)cccc4C)c3)[n+]2[O-])c1 [Compound 140, 4-((3-(ethyl(methyl)carbamoyl)phenyl)carbamoyl)-2-(6-methoxy-2′,6′-dimethyl-[1,1′-biphenyl]-3-yl)-5-methyl-1H-imidazole 3-oxide]"
Inactive,> 30,"COc1ccc(-c2[nH]c(C)c(C(=O)Nc3cccc(C(=O)N4CCCCC4)c3)[n+]2[O-])cc1-c1c(C)cccc1C [Compound 139, 2-(6-methoxy-2′,6′-dimethyl-[1,1′-biphenyl]-3-yl)-5-methyl-4-((3-(piperidine-1-carbonyl)phenyl)carbamoyl)-1H-imidazole 3-oxide]"
Inactive,> 30,"COc1ccc(-c2[nH]c(C)c(C(=O)Nc3cccc(C(=O)N4CCNCC4)c3)[n+]2[O-])cc1-c1c(C)cccc1C [Compound 153, 2-(6-methoxy-2′,6′-dimethyl-[1,1′-biphenyl]-3-yl)-5-methyl-4-((3-(piperazine-1-carbonyl)phenyl)carbamoyl)-1H-imidazole 3-oxide]"
Inactive,> 30,"COc1ccc(-c2[nH]c(C)c(C(=O)Nc3cccc(-c4ccc[nH]4)c3)[n+]2[O-])cc1-c1c(C)cccc1C [Compound 191, 4-((3-(1H-pyrrol-2-yl)phenyl)carbamoyl)-2-(6-methoxy-2′,6′-dimethyl-[1,1′-biphenyl]-3-yl)-5-methyl-1H-imidazole 3-oxide]"
Inactive,> 30,"COc1ccc(-c2[nH]c(C)c(C(=O)Nc3cccc(C4(C(F)(F)F)CC4)c3)[n+]2[O-])cc1-c1c(C)cccc1C [Compound 206, 2-(6-methoxy-2′,6′-dimethyl-[1,1′-biphenyl]-3-yl)-5-methyl-4-((3-(1-(trifluoromethyl)cyclopropyl)phenyl)carbamoyl)-1H-imidazole 3-oxide]"
Inactive,1 to 30,"CCC(F)(F)c1cccc(NC(=O)c2c(C)[nH]c(-c3ccc(C(C)C)c(-c4c(C)cccc4C)c3)[n+]2[O-])c1 [Compound 117, 4-((3-(1,1-difluoropropyl)phenyl)carbamoyl)-2-(6-isopropyl-2′,6′-dimethyl-[1,1′-biphenyl]-3-yl)-5-methyl-1H-imidazole 3-oxide]"
Inactive,1 to 30,"COc1ccc(-c2[nH]c(C)c(C(=O)Nc3cccc(CC(F)(F)F)c3)[n+]2[O-])cc1-c1c(C)cccc1C [Compound 194, 2-(6-methoxy-2′,6′-dimethyl-[1,1′-biphenyl]-3-yl)-5-methyl-4-((3-(2,2,2-trifluoroethyl)phenyl)carbamoyl)-1H-imidazole 3-oxide]"
Inactive,> 30,"COc1ccc(-c2[nH]c(C)c(C(=O)Nc3cccc(C(O)(O)C(F)(F)F)c3)[n+]2[O-])cc1-c1c(C)cccc1C [Compound 195, 2-(6-methoxy-2′,6′-dimethyl-[1,1′-biphenyl]-3-yl)-5-methyl-4-((3-(2,2,2-trifluoro-1,1-dihydroxyethyl)phenyl)carbamoyl)-1H-imidazole 3-oxide]"

# Further lines, the compound ahead of its results:
SMILES,ACSS1 Biochemical IC50 (nM) [1],IC50 [2] [nM]
"Cc1cccc(C)c1-c1cc(Br)cc(-c2[nH]c(C)c(C(=O)Nc3cccc(C(F)(F)C4CC4)c3)[n+]2[O-])c1 [Compound 136, 2-[3-bromo-5-(2,6-dimethylphenyl)phenyl]-N-[3-[cyclopropyl(difluoro)methyl]phenyl]-5-methyl-3-oxido-1H-imidazol-3-ium-4-carboxamide]",Inactive,1 to 30
"CCC(F)(F)c1cccc(NC(=O)c2c(C)n(COP(=O)(OC)OC)c(-c3ccc(OC)c(-c4c(C)cccc4C)c3)[n+]2[O-])c1 [Compound 205, 4-((3-(1,1-difluoropropyl)phenyl)carbamoyl)-1-(((dimethoxyphosphoryl)oxy)methyl)-2-(6-methoxy-2′,6′-dimethyl-[1,1′-biphenyl]-3-yl)-5-methyl-1H-imidazole 3-oxide]",Inactive,> 30
"CCC(F)(F)c1cccc(NC(=O)c2c(C)[nH]c(-c3ccc(OC)c(C4CCN(C)CC4)c3)[n+]2[O-])c1 [Compound 166, N-[3-(1,1-difluoropropyl)phenyl]-2-[4-methoxy-3-(1-methyl-4-piperidyl)phenyl]-5-methyl-3-oxido-1H-imidazol-3-ium-4-carboxamide]",Inactive,> 30
"CCC(F)(F)c1cccc(NC(=O)c2c(C)[nH]c(-c3ccc(OC)c(-c4ncccn4)c3C)[n+]2[O-])c1 [Compound 118, 4-((3-(1,1-difluoropropyl)phenyl)carbamoyl)-2-(4-methoxy-2-methyl-3-(pyrimidin-2-yl)phenyl)-5-methyl-1H-imidazole 3-oxide]",Inactive,> 30
"C/C=C/c1cc(C)c(-c2cc(-c3[nH]c(C)c(C(=O)Nc4cccc(C(F)(F)CC)c4)[n+]3[O-])ccc2OC)c(C)c1 [Compound 159, (E)-4-((3-(1,1-difluoropropyl)phenyl)carbamoyl)-2-(6-methoxy-2′,6′-dimethyl-4′-(prop-1-en-1-yl)-[1,1′-biphenyl]-3-yl)-5-methyl-1H-imidazole 3-oxide]",Inactive,1 to 30
"CCC(F)(F)c1cccc(NC(=O)c2c(C)n(COC(C)=O)c(-c3ccc(OC)c(-c4c(C)cccc4C)c3)[n+]2[O-])c1 [Compound 200, 1-(acetoxymethyl)-4-((3-(1,1-difluoropropyl)phenyl)carbamoyl)-2-(6-methoxy-2′,6′-dimethyl-[1,1′-biphenyl]-3-yl)-5-methyl-1H-imidazole 3-oxide]",Inactive,> 30
"Cc1cccc(C)c1-c1cc(-c2ccccc2)cc(-c2[nH]c(C)c(C(=O)Nc3cccc(C(F)(F)C4CC4)c3)[n+]2[O-])c1 [Compound 133, 4-((3-(cyclopropyldifluoromethyl)phenyl)carbamoyl)-2-(2,6-dimethyl-[1,1′:3′,1″-terphenyl]-5′-yl)-5-methyl-1H-imidazole 3-oxide]",Inactive,1 to 30

# — US20230174507A1, “IMIDAZOLE 3-OXIDE DERIVATIVE BASED ACSS2 INHIBITORS AND METHODS OF USE THEREOF” (METABOMED LTD., priority 2020, published 2023)
